In patent US9593138B2, “Nitrile-containing enzyme inhibitors and ruthenium complexes thereof” (Wayne State University, priority 2012, dated 2017):
pIC50: −log10 of the molar value. Each block holds one compound with its values, some of them ahead of it.

Assays:
human cathepsin K [1] = target: T1, human cathepsin K (Homo sapiens, UniProt P43235); test: Cathepsin K inhibition by the Ru(TPA)-caged inhibitor, 365 nm light (Example 10); format: biochemical; details: 500 μM, highest concentration surveyed, light and dark
T1 sequence (P43235 115-329): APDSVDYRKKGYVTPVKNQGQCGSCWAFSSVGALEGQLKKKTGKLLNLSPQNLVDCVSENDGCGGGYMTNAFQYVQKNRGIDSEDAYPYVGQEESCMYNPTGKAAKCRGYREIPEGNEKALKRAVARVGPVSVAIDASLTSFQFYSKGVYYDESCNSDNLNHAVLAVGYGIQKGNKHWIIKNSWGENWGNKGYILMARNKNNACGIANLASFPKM
Method: Complex 10.2 acts as a potent, photoactivated inhibitor of human cathepsin K. IC50 values were determined for 10.2 and 10.3 under dark conditions, and upon irradiation with 365 nm light (FIG. 20).

[2] = Quantum yields of photoinduced CH3CN ligand exchange in H2O (Example 12); format: physicochemical; details: for quantum yield, first CH3CN ligand exchange (Φ500) / quantum yield, first CH3CN ligand exchange (Φ550): H2O; for quantum yield, first CH3CN ligand exchange (Φ500): 500 nm irradiation
Method: The quantum yields (Φ) for photoinduced ligand exchange of the first CH3CN in H2O were measured for complexes 12.1 and 12.3 with 500 nm and 550 nm irradiation wavelengths using the appropriate bandpass filters. The moles of complex reacted was quantitated using electronic absorption spectroscopy by monitoring the decrease in MLCT absorption maximum of each complex as a function of irradiation time (moles reacted/s) at early irradiation times, and Reinecke's salt was used as an actinometer to determine the intensity (Einstein/s) of the Xe arc lamp at the corresponding wavelengths. The Φ for the photoinduced ligand exchange of the second CH3CN ligand was measured for 12.1 using 400 nm and 550 nm irradiation wavelengths using the appropriate bandpass filters monitoring the decrease in the MLCT absorption peak of the mono-aqua intermediate, 12.4.

[3] = system: prostate cancer PC3 cells; test: MTT cell viability, PC3 cells; format: cell-based; details: 1 nM-100 μM, light or dark, up to 72 h
Method: (§1) FIG. 6. Cytotoxicity of cis-[Ru(bpy)2(2)2]Cl2 (3) and the control compound cis-[Ru(bpy)2(MeCN)2](PF6)2 on BMM cells (A-B) and prostate cancer PC3 cells (C-D). […] Cell viability was determined using the MTT assay after 24 h for BMM cells and 72 h for PC3 cells, and is reported relative to control with only buffer added. Error bars represent the standard deviations of triplicate wells, and data are representative of three independent experiments.
These effects are highly dependent on the nature of ligands bound to ruthenium, and with some compounds treatment for up to 72 h is necessary to observe growth inhibitory effects. Later time points were not examined with BMM cells due to complications in maintaining these cells in culture over long periods of time, with or without VI.

papain = target: T2, papain (Carica papaya, UniProt P00784); test: Papain inhibition, chromogenic substrate BAPNA, light vs dark; format: biochemical
T2 sequence (P00784 134-345): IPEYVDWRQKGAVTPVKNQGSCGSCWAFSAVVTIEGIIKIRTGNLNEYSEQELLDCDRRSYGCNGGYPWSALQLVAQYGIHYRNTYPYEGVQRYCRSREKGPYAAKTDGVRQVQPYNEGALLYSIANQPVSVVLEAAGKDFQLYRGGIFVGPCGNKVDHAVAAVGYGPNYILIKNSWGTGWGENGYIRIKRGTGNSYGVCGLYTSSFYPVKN
Method: FIG. 5. […] Data points represent an average of three reactions and error bars are standard deviations.
Papain Inhibition Studies. The inhibition studies with papain were carried out following a modified procedure by Gütschow and coworkers (Löser et al., J. Med. Chem. 2005, 48, 7688-7707). […] A 0.25 mM papain stock solution was prepared in 0.1 mM HCl and kept frozen. For each experiment, the stock solution was diluted 250 times and activated for 45 min at 25° C. with a 0.1 M phosphate pH 6.5, 15 mM DTT and 2.5 mM EDTA buffer solution. A 10.0 mM solution of BAPNA in DMSO was prepared daily and plated (final concentration 1.0 mM). The inhibitor was plated as a 1% DMSO solution in the assay buffer.
The photolysis was conducted for 10 minutes (with gentle shaking of the plate every 2-3 minutes) using a 250 W tungsten halogen lamp (Osram Xenophot HLX) powered by a 24 V power supply. The irradiation wavelength was selected by placing a bandpass filter (395 nm cutoff) between the lamp and the sample, along with a 10 cm water cell to absorb infrared light. After photolysis, the reaction was initiated by addition of 65 μL of enzyme (final volume 100 μL, final enzyme concentration 0.65 μM). The absorbance changes due to the hydrolysis product p-nitroaniline (pNA) were measured at 405 nm every 2 min for 14 min (8 measures) at 25° C.

BMM cells = test: MTT cell viability, BMM cells; format: cell-based, murine; details: 1 nM-100 μM, light or dark, after 24 h
Method: In order to gain more insight into the biological behavior of the caged inhibitor, effects of VI and its byproducts on cell viability in BMM cells were determined under light and dark conditions. BMM cells were treated with either VI or cis-[Ru(bpy)2(MeCN)2](PF6)2 as a control (1 nM-100 μM), incubated for 30 min, left in the dark or irradiated with a tungsten halogen lamp for 15 min and then washed, using the same protocol as the confocal microscopy studies shown in FIG. 15. After 24 h viabilities were determined using the MTT assay (FIG. 17).
as §1

[4] = Dark controls: ligand exchange in the absence of light; format: physicochemical; details: H2O, room temperature (˜22° C.)
Method: FIG. 23. Dark Control with respect to FIG. 22 showing that the nitrile ligands are not released under similar conditions in the absence of light for a period of 24 hours.
Photochemistry. The photoreactivity of 12.1-12.3 was evaluated by monitoring the changes to the electronic absorption and ^1H NMR spectra as a function of irradiation time. […] Complexes 12.1-12.3 are inert to ligand substitution in the dark at room temperature under similar experimental conditions. For the symmetrical complexes 12.2 and 12.3, one resonance is observed in CD3CN corresponding to the methyl protons of both bound acetonitrile ligands at 2.22 ppm and 2.28 ppm, respectively. During the photolysis of 12.2 in CD3CN with λirr≧455 nm, the resonance at 2.22 ppm decreases with increasing irradiation time, while a peak at 1.96 ppm corresponding to free CH3CN in CD3CN increases in intensity at the same rate. The photolysis of 12.3 in CD3CN with λirr≧610 nm yields similar results with the decrease of the peak at 2.28 ppm with the concomitant increase of the free CH3CN resonance at 1.96 ppm. The intensity of the peak corresponding to free CH3CN at 1.96 ppm integrates to two ligands at the end of the photolysis for both 12.2 and 12.3 in CD3CN, indicative that that both CH3CN ligands in 12.2 and 12.3 are exchanged. […] Moreover, no shifts are observed in the aromatic region as the reaction progresses. […]

[5] = reported, cited from earlier work
[6] = target: T3, human cathepsin B in DU145 lysates (Homo sapiens, UniProt P07858); test: Cathepsin B activity in DU145 lysates, Z-Arg-Arg-AMC; format: biochemical; details: DU145 lysate, without irradiation (dark)
T3 construct: endogenous in cells; host or cells: DU145 prostate carcinoma cells (ATCC), lysate
Description: (§2) The irradiation wavelength was selected by placing a bandpass filter (395 nm cutoff) between the lamp and the sample, along with a 10 cm water cell to absorb infrared light.

human cathepsin L = target: T4, human cathepsin L (Homo sapiens, UniProt P07711); test: Cathepsin L inhibition, Z-Phe-Arg-AMC, light vs dark; format: biochemical; details: without irradiation (dark); pH 5.5
T4 construct: purchased Sigma
T4 sequence (P07711 114-333): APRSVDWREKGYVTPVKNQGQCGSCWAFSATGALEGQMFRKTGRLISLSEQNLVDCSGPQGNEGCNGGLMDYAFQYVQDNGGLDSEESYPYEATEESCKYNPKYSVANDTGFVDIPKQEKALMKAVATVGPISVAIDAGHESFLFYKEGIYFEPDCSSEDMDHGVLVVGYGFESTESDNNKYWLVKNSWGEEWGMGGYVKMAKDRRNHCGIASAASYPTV
Description: as §2

human cathepsin K [7] = target: T1, human cathepsin K; test: Cathepsin K inhibition, Z-Gly-Pro-Arg-AMC, light vs dark; format: biochemical; details: without irradiation (dark); pH 5.5
Method: Cathepsins B, K and L were then examined for photoinduced inhibition with V. IC50 values for 1 and V (with and without irradiation) were determined in aqueous buffer at pH 5.5 for cathepsins L and K, and pH 6.0 for cathepsin B using fluorogenic substrates selective for each enzyme (Table 1). […] Control experiments show some level of inhibition by [Ru^II(bpy)2(MeCN)2](PF6)2, which may explain the lower ratios for dark vs. light conditions observed with cathepsins vs. papain.
The IC50 values represent the average from three independent experiments. […] Activities were determined with the fluorogenic substrates Z-Arg-Arg-AMC (cathepsin B), Z-Gly-Pro-Arg-AMC (cathepsin K) and Z-Phe-Arg-AMC (cathepsin L) (where AMC is aminomethylcoumarin). […]
Cathepsin Inhibition Studies. Cathepsin enzyme activity was determined from kinetic measurements performed by fluorometric detection of the hydrolysis product aminomethylcoumarin (AMC) at 37° C. every 2 min for 14 min (8 measures). […]
The photolysis was conducted for 10 minutes (with gentle shaking of the plate every 2-3 min) using a 250 W tungsten halogen lamp (Osram Xenophot HLX) powered by a 24 V power supply. […] Cathepsin enzyme activity was determined from kinetic measurements performed by fluorometric detection of the hydrolysis product AMC at 37° C. every 2 min for 14 min (8 measures) and MAX RFU slope values used for plotting (FIG. 7).

human cathepsin B = target: T5, human cathepsin B (Homo sapiens, UniProt P07858); test: Cathepsin B inhibition, Z-Arg-Arg-AMC, light vs dark; format: biochemical; details: without irradiation (dark); pH 6.0
T5 construct: Purified cathepsin B (human liver) was obtained from Enzo Life Sciences; purchased Enzo Life Sciences; host or cells: human liver (tissue-purified)
Description: as §2

[8] = target: T6, human cathepsin B in hBMSC lysates (Homo sapiens, UniProt P07858); test: Cathepsin B activity in hBMSC lysates, Z-Arg-Arg-AMC; format: biochemical; details: hBMSC lysate, without irradiation (dark)
T6 construct: lysates from primary human bone marrow stromal cells (hBMSC), an important source of cathepsin activity; endogenous in cells; host or cells: primary human bone marrow stromal cells (hBMSC), lysate
Description: as §2

inhibition of cathepsin K (human cathepsin K [1]): no inhibition
Compound: [Ru(TPA)(CH3CN)2](PF6)2 [10.1]

Compound: CC#N.CC#N.F[P-](F)(F)(F)(F)F.F[P-](F)(F)(F)(F)F.[Ru+2].c1ccc2nc(-c3ccc4ccccc4n3)ccc2c1.c1ccc2nc(-c3ccc4ccccc4n3)ccc2c1 [12.3, [Ru(biq)2(CH3CN)2](PF6)2]
quantum yield, first CH3CN ligand exchange (Φ500) [2]: 0.24(1)
quantum yield, first CH3CN ligand exchange (Φ550) ([2]; 550 nm irradiation): 0.150(8)

quantum yield, first CH3CN ligand exchange (Φ500) [2]: 0.26(1)
quantum yield, first CH3CN ligand exchange (Φ550) ([2]; 550 nm irradiation): 0.140(5)
Compound: [Ru(biq)(phen)(CH3CN)2](PF6)2 [12.1]

Compound: CC#N.CC#N.F[P-](F)(F)(F)(F)F.F[P-](F)(F)(F)(F)F.[Ru+2].c1ccc(-c2ccccn2)nc1.c1ccc(-c2ccccn2)nc1 [cis-[Ru(bpy)2(MeCN)2](PF6)2, reference compound]
growth inhibitory effects (MTT) [3]: not observed
pIC50 (papain; control complex, same profile under light and dark conditions): < 3.30
cell viability (MTT) (BMM cells): no effects on viability

quantum yield, exchange of the remaining CH3CN ligand (Φ400) ([2]; 400 nm irradiation, to the bis-aqua complex 12.5): 0.0045(1)
quantum yield, exchange of the remaining CH3CN ligand (Φ550) ([2]; 550 nm irradiation, to the bis-aqua complex 12.5): 0.0014(5)
stability in the dark [4]: stable in the dark for up to 6 hours
Compound: cis-[Ru(bpy)(biq)(CH3CN)(H2O)]^2+ [12.4]

Compound: CC#N.CC#N.[Cl-].[Cl-].[Ru+2].c1ccc(-c2ccccn2)nc1.c1ccc(-c2ccccn2)nc1 [cis-[Ru(bpy)2(MeCN)2]Cl2]
overall photoaquation quantum yield (ΦR→P) ([5]; λirr=400 nm): 0.21

Compound: N#Cc1c[nH]c(=O)[nH]c1=O.N#Cc1c[nH]c(=O)[nH]c1=O.[Cl-].[Cl-].[Ru+2].c1ccc(-c2ccccn2)nc1.c1ccc(-c2ccccn2)nc1 [cis-[Ru(bpy)2(5-cyanouracil)2]Cl2]
quantum yield for formation of the mono-aqua species (ΦR→I) [5]: 0.16(4)

Compound: CC(=O)N[C@@H](Cc1ccccc1)C(=O)NCC#N [compound 1, (S)-2-Acetamido-N-(cyanomethyl)-3-phenylpropanamide]
pIC50 [6]: 3.74
pIC50 (human cathepsin L): 4.14
pIC50 (human cathepsin K [7]): 4.92
pIC50 (human cathepsin B): 3.88
pIC50 (papain; without irradiation, phosphate buffer pH 6.5, enzyme 650 nM): 6.20
pIC50 [8]: 3.74

Compound: CC#N.CC#N.F[P-](F)(F)(F)(F)F.F[P-](F)(F)(F)(F)F.[Ru+2].c1cnc2c(c1)ccc1cccnc12.c1cnc2c(c1)ccc1cccnc12 [12.2, [Ru(phen)2(CH3CN)2](PF6)2]
quantum yield, first CH3CN ligand exchange (Φ400) ([2]; 400 nm irradiation): 0.22(1)
